The record followed here is patent US8076487B2, “Pyridone derivative and herbicide” (Kumiai Chemical Industry Co., Ltd., priority 2006, dated 2011).

Holding throughout (assay type): in vivo
Test [1] relates to barnyardgrass (Echinochloa crus-galli (L.) P. Beauv. var. crus-galli). The test is described as follows: Test Example 3: herbicidal effect by application to upland field (foliage treatment). The conditions noted are these: 14th day after application; for herbicidal effect (index), Barnyardgrass: foliage treatment, plants grown two weeks, 1,000 g active ingredient per hectare; for herbicidal effect, Barnyardgrass: foliage treatment, 1,000 g active ingredient per 1 hectare, greenhouse. The gist of the method: (§1)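 Post-emergence spray at 1,000 g AI/ha of wettable powder in water (1,000 L/ha), onto seedlings grown 2 weeks in greenhouse field-soil pots. Graded day 14.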

For test [2], the system named is slender amaranth (Amaranthus viridis L.). Described as above. The following applies: 14th day after application; for herbicidal effect (index), Slender Amaranth: foliage treatment, plants grown two weeks, 1,000 g active ingredient per hectare; for herbicidal effect, Slender Amaranth: foliage treatment, 1,000 g active ingredient per 1 hectare, greenhouse. The gist of the method: as §1

The test system of test [3] is velvetleaf (Abutilon theophrasti medicus). The description is as above. The conditions noted are these: 14th day after application; for herbicidal effect (index), Velvetleaf: foliage treatment, plants grown two weeks, 1,000 g active ingredient per hectare; for herbicidal effect, Velvetleaf: foliage treatment, 1,000 g active ingredient per 1 hectare, greenhouse. The procedure, abridged:
as §1

Test [4] has as its system green foxtail (Setaria viridis (L.) P. Beauv.). The test is described as above. The conditions noted are these: 14th day after application; for herbicidal effect (index), Green Foxtail: foliage treatment, plants grown two weeks, 1,000 g active ingredient per hectare; for herbicidal effect, Green Foxtail: foliage treatment, 1,000 g active ingredient per 1 hectare, greenhouse. The gist of the method:
as §1

Test [5] has as its system barnyardgrass (Echinochloa crus-galli (L.) P. Beauv. var. crus-galli). The test is described as follows: Test Example 2: herbicidal effect by soil application to upland field. The following applies: soil surface spray, upland field soil, 1,000 g active ingredient per hectare, 21st day after application. The procedure, abridged:
(§2)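 Scoring on a standard scale took place 21 days after application, with plants kept in a greenhouse. Active ingredient (1,000 g/ha, as diluted wettable powder, 1,000 L/ha) was sprayed evenly onto soil directly after sowing and covering seeds.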

In test [6] the test system is slender amaranth (Amaranthus viridis L.). The description is as above. The conditions noted are these: soil surface spray, upland field soil, 1,000 g active ingredient per hectare, 21st day after application. The gist of the method:
as §2

For test [7], the system named is velvetleaf (Abutilon theophrasti medicus). The test is described as above. The following applies: soil surface spray, upland field soil, 1,000 g active ingredient per hectare, 21st day after application. The procedure, abridged: as §2
The test system of test [8] is green foxtail (Setaria viridis (L.) P. Beauv.). The test is described as above. The following applies: soil surface spray, upland field soil, 1,000 g active ingredient per hectare, 21st day after application. The gist of the method:
as §2

Test [9] deals with Japanese bulrush (Scirpus juncoides Roxb.). As to the kind of experiment: Test Example 1: herbicidal effect by soil application to paddy field. The conditions noted are these: paddy field soil application; active ingredient 1,000 g per 1 hectare; wettable powder added dropwise to water surface the day after sowing; examined on the 21st day after application. The procedure, abridged:
(§3)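 Plants were sown in flooded (3 cm) paddy soil and evaluated for herbicidal effect 21 days after soil application in a greenhouse.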

Test [10] has as its system early watergrass (Echinochloa oryzicola Vasing). The description is as above. The following applies: paddy field soil application; active ingredient 1,000 g per 1 hectare; wettable powder added dropwise to water surface the day after sowing; examined on the 21st day after application. The gist of the method: as §3
For test [11], the system named is heartshape false pickerelweed (Monochoria vaginalis (Burm.f.) C.Presl). Described as above. The following applies: paddy field soil application; active ingredient 1,000 g per 1 hectare; wettable powder added dropwise to water surface the day after sowing; examined on the 21st day after application. The gist of the method: as §3

On to `O=C1CCCC(O)=C1C(=O)c1ccc(C(F)(F)F)n(-c2ccc(F)cc2F)c1=O` [I-102], for which the “herbicidal effect (index), Barnyardgrass” value in [1] was 5 (90% or more of herbicidal effect and crop phytotoxicity); in [5], 5 (90% or more of herbicidal effect and crop phytotoxicity). Further, the “herbicidal effect (index), Slender Amaranth” value in [2] was 5 (90% or more of herbicidal effect and crop phytotoxicity); in [6], 5 (90% or more of herbicidal effect and crop phytotoxicity). The “herbicidal effect (index), Velvetleaf” value is 5 (90% or more of herbicidal effect and crop phytotoxicity) in [3]; 5 (90% or more of herbicidal effect and crop phytotoxicity) in test [7]. Moreover, the “herbicidal effect (index), Green Foxtail” value in test [4] was 5 (90% or more of herbicidal effect and crop phytotoxicity); in test [8], 5 (90% or more of herbicidal effect and crop phytotoxicity). The “herbicidal effect, Scirpus juncoides Roxb.” value in test [9] was 5 (90% or more of herbicidal effect and crop phytotoxicity). The “herbicidal effect, Echinochloa oryzicola Vasing” value in [10] was 5 (90% or more of herbicidal effect and crop phytotoxicity). In addition, the “herbicidal effect, Monochoria vaginalis (Burm. f.) C. Presl” value (shortened to “herbicidal effect, Monochoria vaginalis”) in test [11] is 5 (90% or more of herbicidal effect and crop phytotoxicity).
Consider `CCCSCn1c(C(F)(F)F)ccc(C(=O)C2=C(O)CCCC2=O)c1=O` [I-50], for which the “herbicidal effect (index), Barnyardgrass” value in test [1] is 5 (90% or more of herbicidal effect and crop phytotoxicity); in [5] it was 5 (90% or more of herbicidal effect and crop phytotoxicity). The “herbicidal effect (index), Slender Amaranth” value in test [2] is 5 (90% or more of herbicidal effect and crop phytotoxicity); in test [6], 5 (90% or more of herbicidal effect and crop phytotoxicity). The “herbicidal effect (index), Velvetleaf” value in test [3] is 5 (90% or more of herbicidal effect and crop phytotoxicity); in [7] it was 5 (90% or more of herbicidal effect and crop phytotoxicity). Also, the “herbicidal effect (index), Green Foxtail” value in [4] was 3 (50 to less than 70% of herbicidal effect and crop phytotoxicity); in [8], 5 (90% or more of herbicidal effect and crop phytotoxicity). Besides, the “herbicidal effect, Scirpus juncoides Roxb.” value in test [9] is 5 (90% or more of herbicidal effect and crop phytotoxicity). The “herbicidal effect, Echinochloa oryzicola Vasing” value in [10] was 5 (90% or more of herbicidal effect and crop phytotoxicity). In addition, the “herbicidal effect, Monochoria vaginalis” value in test [11] is 5 (90% or more of herbicidal effect and crop phytotoxicity).
As to `CC1(C)C(=O)C(C(=O)c2ccc(C(F)(F)F)n(-c3ccccc3)c2=O)=C(O)C(C)(C)C1=O` [II-41], the “herbicidal effect, Barnyardgrass” value in [1] is 5 (90% or more of herbicidal effect and crop phytotoxicity). In addition, the “herbicidal effect, Slender Amaranth” value in test [2] was 4 (70 to less than 90% of herbicidal effect and crop phytotoxicity). In addition, the “herbicidal effect, Velvetleaf” value in test [3] was 5 (90% or more of herbicidal effect and crop phytotoxicity). For the same molecule, the “herbicidal effect, Green Foxtail” value in [4] is 5 (90% or more of herbicidal effect and crop phytotoxicity). Moreover, the “herbicidal effect (index), Barnyardgrass” value in [5] is 4 (70 to less than 90% of herbicidal effect and crop phytotoxicity). In addition, the “herbicidal effect (index), Slender Amaranth” value in test [6] is 5 (90% or more of herbicidal effect and crop phytotoxicity). For the same molecule, the “herbicidal effect (index), Velvetleaf” value in test [7] is 5 (90% or more of herbicidal effect and crop phytotoxicity). The “herbicidal effect (index), Green Foxtail” value in [8] is 5 (90% or more of herbicidal effect and crop phytotoxicity). Moreover, the “herbicidal effect, Scirpus juncoides Roxb.” value in [9] is 4 (70 to less than 90% of herbicidal effect and crop phytotoxicity). In addition, the “herbicidal effect, Echinochloa oryzicola Vasing” value in test [10] was 5 (90% or more of herbicidal effect and crop phytotoxicity). Further, in test [11], the “herbicidal effect, Monochoria vaginalis” value was 5 (90% or more of herbicidal effect and crop phytotoxicity).
As for `Cn1ncc(C(=O)c2ccc(C(F)(F)F)n(C3CCCC3)c2=O)c1O` [IV-21], the “herbicidal effect, Barnyardgrass” value in [1] is 5 (90% or more of herbicidal effect and crop phytotoxicity). For the same molecule, the “herbicidal effect, Slender Amaranth” value in test [2] was 5 (90% or more of herbicidal effect and crop phytotoxicity). In addition, in test [3], the “herbicidal effect, Velvetleaf” value was 5 (90% or more of herbicidal effect and crop phytotoxicity). In addition, in [4], the “herbicidal effect, Green Foxtail” value is 4 (70 to less than 90% of herbicidal effect and crop phytotoxicity). In addition, the “herbicidal effect (index), Barnyardgrass” value in test [5] was 3 (50 to less than 70% of herbicidal effect and crop phytotoxicity). In addition, the “herbicidal effect (index), Slender Amaranth” value in test [6] was 5 (90% or more of herbicidal effect and crop phytotoxicity). Further, the “herbicidal effect (index), Velvetleaf” value in test [7] is 5 (90% or more of herbicidal effect and crop phytotoxicity). Moreover, the “herbicidal effect (index), Green Foxtail” value in test [8] was 5 (90% or more of herbicidal effect and crop phytotoxicity). In addition, the “herbicidal effect, Scirpus juncoides Roxb.” value in test [9] was 5 (90% or more of herbicidal effect and crop phytotoxicity). Besides, the “herbicidal effect, Echinochloa oryzicola Vasing” value in test [10] was 5 (90% or more of herbicidal effect and crop phytotoxicity). Further, the “herbicidal effect, Monochoria vaginalis” value in test [11] is 5 (90% or more of herbicidal effect and crop phytotoxicity).
`CCCCn1c(C(F)(F)F)ccc(C(=O)C2=C(O)CCCC2=O)c1=O` [I-5]: the “herbicidal effect (index), Barnyardgrass” value in [1] is 5 (90% or more of herbicidal effect and crop phytotoxicity); in test [5], 5 (90% or more of herbicidal effect and crop phytotoxicity). For the same molecule, the “herbicidal effect (index), Slender Amaranth” value in test [2] is 5 (90% or more of herbicidal effect and crop phytotoxicity); in [6], 5 (90% or more of herbicidal effect and crop phytotoxicity). Further, the “herbicidal effect (index), Velvetleaf” value was 5 (90% or more of herbicidal effect and crop phytotoxicity) in [3]; 5 (90% or more of herbicidal effect and crop phytotoxicity) in test [7]. In addition, the “herbicidal effect (index), Green Foxtail” value in test [4] was 5 (90% or more of herbicidal effect and crop phytotoxicity); in test [8], 5 (90% or more of herbicidal effect and crop phytotoxicity). In test [9], the “herbicidal effect, Scirpus juncoides Roxb.” value was 5 (90% or more of herbicidal effect and crop phytotoxicity). The “herbicidal effect, Echinochloa oryzicola Vasing” value in test [10] is 5 (90% or more of herbicidal effect and crop phytotoxicity). For the same molecule, the “herbicidal effect, Monochoria vaginalis” value in [11] was 5 (90% or more of herbicidal effect and crop phytotoxicity).
Consider `Cc1cccc(-n2cccc(C(=O)C3=C(O)CCCC3=O)c2=O)c1` [I-238], for which, in [1], the “herbicidal effect, Barnyardgrass” value is 5 (90% or more of herbicidal effect and crop phytotoxicity). For the same molecule, the “herbicidal effect, Slender Amaranth” value in test [2] was 5 (90% or more of herbicidal effect and crop phytotoxicity). Further, the “herbicidal effect, Velvetleaf” value in [3] was 5 (90% or more of herbicidal effect and crop phytotoxicity). The “herbicidal effect, Green Foxtail” value in test [4] was 4 (70 to less than 90% of herbicidal effect and crop phytotoxicity). In [5], the “herbicidal effect (index), Barnyardgrass” value was 5 (90% or more of herbicidal effect and crop phytotoxicity). Also, in test [6], the “herbicidal effect (index), Slender Amaranth” value is 5 (90% or more of herbicidal effect and crop phytotoxicity). Besides, the “herbicidal effect (index), Velvetleaf” value in test [7] is 5 (90% or more of herbicidal effect and crop phytotoxicity). Besides, in test [8], the “herbicidal effect (index), Green Foxtail” value was 4 (70 to less than 90% of herbicidal effect and crop phytotoxicity). Moreover, in test [9], the “herbicidal effect, Scirpus juncoides Roxb.” value is 5 (90% or more of herbicidal effect and crop phytotoxicity). For the same molecule, the “herbicidal effect, Echinochloa oryzicola Vasing” value in test [10] was 5 (90% or more of herbicidal effect and crop phytotoxicity). For the same molecule, the “herbicidal effect, Monochoria vaginalis” value in [11] is 5 (90% or more of herbicidal effect and crop phytotoxicity).
